Columns and labels:
Assay type in all cases: cell-based
IL-1β = assay: Anti-inflammatory potential: IL-1β ELISA in keratinocytes stimulated with PMA
Method: Keratinocytes were inoculated in KGM2 medium. After 24 hours of incubation, the cells were pre-treated with 0.2% (dry matter) arabinogalactan for 24 hours. Next, the cells were stimulated by adding 10 μg/ml PMA (phorbol-12-myristate-13-acetate; Sigma) for 16 hours, in order to mimic inflammation.
At the end of the treatment, the cell supernatants were collected and IL-1β was assayed using ELISA kits (R&D Systems).
On the cell layers, a neutral red assay was carried out: optical density, proportional to the quantity of living cells, is read at 540 nm.
The quantity of IL-1β is expressed by living cells according to the formula: OD ELISA IL-1β/OD540.
(§1) The significance of the results was evaluated by a Student's t-test: *p<0.05, **p<0.01.

collagen I gene = assay: Preventive effect on collagen I gene expression in fibroblasts treated with hydrocortisone (hormonal environment)
Text: (§2) The quantitative real-time polymerase chain reaction (qRT-PCR) is a method that makes it possible to measure in a specific and quantitative way the expression of genes of interest by amplification. Quantification is based on the real-time monitoring of gene amplification using SYBR Green as a reporter system. SYBR Green is a molecule with fluorescent properties which is intercalated in double-stranded DNA. […]
(§3) The quantities of DNA are compared in the exponential part, the time during which the increase in the quantity of DNA is proportional to the initial quantity of the matrix. […]
(§4) At the end of the treatment of the cells, total RNA was extracted (RNeasy MiniKit) and then assayed quantitatively in chips using the Experion system (Experion RNA StdSens kit). […]
(§5) Expression of the genes of reference is analyzed in the same samples as those for which the expression of the genes of interest is evaluated in order to normalize the results.
(§6) Variation in the number of copies of the gene of interest during the treatment is then calculated according to the following formula: ΔΔCt=ΔCtcontrol−ΔCttreatment
(§7) Finally, the relative quantity or level of expression of the genes of interest normalized by the level of expression of the reference genes in the untreated and treated samples is obtained by the formula RQ=2^ΔΔCt.
as §1

[1] = system: gene coding for collagen type I; assay: Gene expression of collagen I in normal fibroblasts by quantitative real-time PCR; conditions: 48-hour treatment, normalized to GAPDH, 0.2% arabinogalactan or 5 ng/ml TGF-β1
Text: as §2, §3, §4, §5, §6, §7, §1

collagen type III gene = assay: Gene expression of collagen III in normal fibroblasts by quantitative real-time PCR; conditions: 48 hours of treatment, 0.2% dry matter arabinogalactan or 5 ng/ml TGF-β1
Text: as §2, §3, §4, §5, §6, §7, §1

fibroblasts = assay: Study of fibroblast proliferation by the MTT method; conditions: 0.2% arabinogalactan, 48 hours of treatment
Method: The MTT [3-(4,5-dimethylthiazol-2-yl)-2,5-diphenyltetrazolium bromide] assay is a colorimetric test which measures cell viability. MTT is a yellow water-soluble tetrazolium salt; metabolically active cells are capable of reducing it into formazan blue crystals.
At D0, the fibroblasts are inoculated in RPMI medium with 1% FCS.
At D1, the cells are treated with RPMI with 10% FCS (positive control) or with 0.2% arabinogalactan for 48 hours.
At the end of the treatment, cell viability is quantified by an MTT assay: after 3 hours of contact with MTT, the formazan crystals formed are solubilized by DMSO and the optical density, proportional to the quantity of metabolically active and thus living cells, is read at 570 nm against the blank (without cells).
as §1

[2] = system: normal human keratinocytes; assay: Prerequisite cutaneous tolerance: pro-inflammatory potential, interleukins 1 and 8 and TNF-α assayed in the cell supernatant; conditions: 0.2% dry matter
Method: A. Prerequisite Cutaneous Tolerance • Inflammation: The pro-inflammatory potential of arabinogalactan was evaluated on normal human keratinocytes. Interleukins 1 and 8 as well as TNF-α, early mediators of inflammation, were assayed in the cell supernatant.

## CCCCCCCCCCCCCC(=O)O[C@@H]1[C@@H](C)[C@@]2(O)[C@@H](C=C(CO)C[C@]3(O)C(=O)C(C)=C[C@@H]23)[C@@H]2C(C)(C)[C@]12OC(C)=O [PMA, phorbol-12-myristate-13-acetate, reference compound]
IL-1β; keratinocytes, 10 μg/ml PMA 16 hours
  salting out of IL-1β under stress: massively salt-out IL-1β

## C[C@]12CCC(=O)C=C1CC[C@@H]1[C@@H]2[C@@H](O)C[C@@]2(C)[C@H]1CC[C@]2(O)C(=O)CO [hydrocortisone, reference compound]
Collagen I gene; fibroblasts, 50 μM hydrocortisone, 48 hours of treatment
  inhibition of expression of the collagen I gene: 57%

## TGF-β: growth factor with a strong capacity to induce molecules of the extracellular matrix; used as a positive control [reference compound]
[1]
  increase of expression of the gene coding for collagen type I: +223%
Collagen type III gene
  increase of expression of the collagen type III gene: 147%

## arabinogalactan
IL-1β; keratinocytes pretreated 24 hours with 0.2% dry matter arabinogalactan, then 10 μg/ml PMA 16 hours
  inhibition of salting out of IL-1β (OD ELISA/OD540): −21%
[1]
  increase of expression of the gene coding for collagen type I: +38%
Collagen type III gene
  increase of expression of the collagen type III gene: +81%
fibroblasts
  fibroblast proliferation / cell regeneration (MTT, OD570): +20%
Collagen I gene; fibroblasts pretreated 24 hours with 0.2% arabinogalactan, then arabinogalactan + 50 μM hydrocortisone 48 hours
  increase of expression of collagen I in the presence of hydrocortisone: 37%
[2]
  pro-inflammatory potential: not pro-inflammatory
[2]; cell supernatant
  salting out of interleukins 1 and 8 or TNF-α: does not lead to salting out of interleukins 1 and 8 or TNF-α

Reference: patent US8765198B2, “Anti-stretch mark active agent, and compositions containing same” (Laboratoires Expanscience, priority 2008, dated 2014)
